Experimental data reported in PubChem BioAssay (NCI).
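All cell lines were grown in 96-well plates and treated with compound for 48 hours. GI50: concentration for 50% inhibition of growth. TGI denotes the concentration required for complete inhibition of growth.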

Key:
Assay in all cases: inhibition of tumour cell growth, NCI panel, 48 h; in the data active means GI50 below about 0.43 µM; inactive means the rest
[1] = test system: 786-0 renal
[2] = test system: A498 renal
[3] = test system: A549 NSCLC
[4] = test system: ACHN renal
[5] = test system: BT-549 breast
[6] = test system: CAKI-1 renal
[7] = test system: CCRF-CEM leukemia
[8] = test system: COLO 205 colon
[9] = test system: DU-145 prostate
[10] = test system: EKVX NSCLC
[11] = test system: HCT-116 colon
[12] = test system: HCT-15 colon
[13] = test system: HOP-62 NSCLC
[14] = test system: HOP-92 NSCLC
[15] = test system: HS 578T breast
[16] = test system: HT29 colon
[17] = test system: IGROV1 ovarian
[18] = test system: K-562 leukemia
[19] = test system: KM12 colon
[20] = test system: LOX IMVI melanoma
[21] = test system: M14 melanoma
[22] = test system: MALME-3M melanoma
[23] = test system: MCF7 breast
[24] = test system: MDA-MB-231 breast
[25] = test system: MDA-MB-435
[26] = test system: NCI-H226 lung
[27] = test system: NCI-H23 lung
[28] = test system: NCI-H460 lung
[29] = test system: NCI-H522 lung
[30] = test system: NCI/ADR-RES ovarian
[31] = test system: OVCAR-3 ovarian
[32] = test system: OVCAR-4 ovarian
[33] = test system: OVCAR-5 ovarian
[34] = test system: OVCAR-8 ovarian
[35] = test system: PC-3 prostate
[36] = test system: RPMI-8226 leukemia
[37] = test system: RXF 393 renal
[38] = test system: SF-268 CNS
[39] = test system: SF-295 CNS
[40] = test system: SF-539 CNS
[41] = test system: SK-MEL-2 melanoma
[42] = test system: SK-MEL-28 melanoma
[43] = test system: SK-MEL-5 melanoma
[44] = test system: SK-OV-3 ovarian
[45] = test system: SN12C renal
[46] = test system: SNB-19 CNS
[47] = test system: SNB-75 CNS
[48] = test system: SW-620 colon
[49] = test system: TK-10 renal
[50] = test system: U251 CNS
[51] = test system: UACC-257 melanoma
[52] = test system: UACC-62 melanoma
[53] = test system: UO-31 renal
[54] = test system: HCC-2998 colon
[55] = test system: HL-60(TB) leukemia
[56] = test system: MOLT-4 leukemia
[57] = test system: SR leukemia
[58] = test system: T-47D breast

CC1COc2c(N3CCN(C)CC3)c(F)cc3c(=O)c(C(=O)O)cn1c23 (stereo not given)
inactive: GI50 [1] > 100000 nM | GI50 [2] > 100 µM | GI50 [3] > 100000 nM | GI50 [4] > 100000 nM | GI50 [5] > 100 µM | GI50 [6] > 100 µM | GI50 [7] > 100 µM | GI50 [8] > 100000 nM | GI50 [9] > 100 µM | GI50 [10] > 100000 nM | GI50 [11] > 100 µM | GI50 [12] > 100 µM | GI50 [13] > 100000 nM | GI50 [14] 478 nM | GI50 [15] > 100 µM | GI50 [16] > 100 µM | GI50 [17] > 100000 nM | GI50 [18] 96.8 µM | GI50 [19] > 100 µM | GI50 [20] > 100000 nM | GI50 [21] > 100 µM | GI50 [22] > 100000 nM | GI50 [23] > 100000 nM | GI50 [24] 81.7 µM | GI50 [25] > 100 µM | GI50 [26] 93.1 µM | GI50 [27] > 100000 nM | GI50 [28] > 100000 nM | GI50 [29] > 100000 nM | GI50 [30] > 100 µM | GI50 [31] > 100 µM | GI50 [32] > 100000 nM | GI50 [33] 84.4 µM | GI50 [34] > 100000 nM | GI50 [35] > 100 µM | GI50 [36] > 100000 nM | GI50 [37] > 100 µM | GI50 [38] > 100 µM | GI50 [39] > 100 µM | GI50 [40] > 100000 nM | GI50 [41] > 100000 nM | GI50 [42] > 100000 nM | GI50 [43] > 100 µM | GI50 [44] > 100000 nM | GI50 [45] > 100000 nM | GI50 [46] > 100000 nM | GI50 [47] > 100000 nM | GI50 [48] > 100 µM | GI50 [49] > 100000 nM | GI50 [50] > 100 µM | GI50 [51] > 100 µM | GI50 [52] > 100 µM | GI50 [53] 47.5 µM
> 100 µM: TGI [6] | TGI [15] | TGI [25] | TGI [26] | TGI [44] | TGI [46] | TGI [51]
> 100000 nM: TGI [1] | TGI [2] | TGI [3] | TGI [4] | TGI [5] | TGI [7] | TGI [8] | TGI [9] | TGI [10] | TGI [11] | TGI [12] | TGI [13] | TGI [14] | TGI [16] | TGI [17] | TGI [18] | TGI [19] | TGI [20] | TGI [21] | TGI [22] | TGI [23] | TGI [24] | TGI [27] | TGI [28] | TGI [29] | TGI [30] | TGI [31] | TGI [32] | TGI [33] | TGI [34] | TGI [35] | TGI [36] | TGI [37] | TGI [38] | TGI [39] | TGI [40] | TGI [41] | TGI [42] | TGI [43] | TGI [45] | TGI [47] | TGI [48] | TGI [49] | TGI [50] | TGI [52] | TGI [53]

COc1ccc2c(c1)[nH]c(=O)c1c3cc(OC)ccc3cn21
1790 nM: TGI [49]
280 nM: TGI [16]
1560 nM: TGI [1]
393 nM: TGI [19]
2090 nM: TGI [14]
363 nM: TGI [28]
1080 nM: TGI [11]
180 nM: TGI [39]
1120 nM: TGI [27]
2300 nM: TGI [33] | TGI [45]
2050 nM: TGI [13]
1400 nM: TGI [52]
2670 nM: TGI [10]
49.8 nM: TGI [40]
2010 nM: TGI [42]
< 0.01 µM: TGI [6] | TGI [25]
256 nM: TGI [9]
4.32 µM: TGI [46]
985 nM: TGI [24]
20.4 nM: TGI [31]
1610 nM: TGI [47]
788 nM: TGI [56]
1230 nM: TGI [50]
75.1 nM: TGI [7]
597 nM: TGI [23]
inactive: GI50 [58] 1030 nM | GI50 [51] 14.6 µM
1310 nM: TGI [48]
1190 nM: TGI [5]
1880 nM: TGI [22]
87.4 nM: TGI [36]
29.1 µM: TGI [51]
1520 nM: TGI [35]
1440 nM: TGI [38]
48.6 nM: TGI [18]
1900 nM: TGI [53]
92.3 nM: TGI [8]
116 nM: TGI [43]
< 10 nM: TGI [55]
1350 nM: TGI [2]
70.1 nM: TGI [54]
1820 nM: TGI [32]
1570 nM: TGI [34]
1280 nM: TGI [3]
1550 nM: TGI [4]
3.24 µM: TGI [58]
active: GI50 [1] 45.3 nM | GI50 [2] < 0.0104 µM | GI50 [3] 26.5 nM | GI50 [4] 19.9 nM | GI50 [5] < 0.031 µM | GI50 [6] < 0.01 µM | GI50 [7] < 0.0132 µM | GI50 [8] 27.4 nM | GI50 [9] < 0.019 µM | GI50 [10] 72.8 nM | GI50 [54] 15.9 nM | GI50 [11] < 0.01 µM | GI50 [12] < 0.01 µM | GI50 [55] < 10 nM | GI50 [13] 179 nM | GI50 [14] 210 nM | GI50 [16] < 0.0143 µM | GI50 [17] 15.7 nM | GI50 [18] < 0.01 µM | GI50 [19] < 0.01 µM | GI50 [20] 26.9 nM | GI50 [21] < 0.01 µM | GI50 [22] 139 nM | GI50 [23] 27.7 nM | GI50 [24] 0.0431 µM | GI50 [25] < 0.01 µM | GI50 [56] < 14.5 nM | GI50 [26] 0.262 µM | GI50 [27] 46 nM | GI50 [28] 28.2 nM | GI50 [29] 22 nM | GI50 [30] < 0.01 µM | GI50 [31] < 0.01 µM | GI50 [32] 50 nM | GI50 [33] 0.0545 µM | GI50 [34] 34.3 nM | GI50 [35] < 0.0104 µM | GI50 [36] 16 nM | GI50 [37] < 0.01 µM | GI50 [38] < 0.0154 µM | GI50 [39] < 0.01 µM | GI50 [40] 17.9 nM | GI50 [41] 53.8 nM | GI50 [42] 10.2 nM | GI50 [43] < 0.0128 µM | GI50 [44] 52.2 nM | GI50 [45] 36.2 nM | GI50 [46] 77.4 nM | GI50 [47] 18.7 nM | GI50 [57] < 10.6 nM | GI50 [48] < 0.01 µM | GI50 [49] 374 nM | GI50 [50] < 0.01 µM | GI50 [52] < 0.01 µM | GI50 [53] 0.028 µM
1680 nM: TGI [20]
1180 nM: TGI [17]
4.2 µM: TGI [44]
564 nM: TGI [29]
62 nM: TGI [57]
20 nM: TGI [30]
2430 nM: TGI [41]
274 nM: TGI [37]
17.4 µM: TGI [26]
653 nM: TGI [12]
1340 nM: TGI [21]
